The structures appear in SMILES notation.

The subject of this assay is microorganisms. The assay is described as follows: Antimicrobial activity after organic materials and repetitive microbial loading cycles. To be noted: after exposure to organic materials and repetitive microbial loading cycles.

As to `[Na+].[O-]Cl` [bleach, sodium hypochlorite], the “retention of antimicrobial activity” value is “losing its biocidal activity rapidly”.
